According to patent US11446287B2, “Compounds and methods for EP300 or CBP modulation and indications therefor” (Opna Immuno-Oncology SA, priority 2019, dated 2022):

These molecules were tested against T1, Recombinant human CBP containing the bromodomain (CBP-BD (1043-1159)) (Homo sapiens, UniProt Q92793) (assay: CBP Alphascreen binding assay). Details: read-out: CREBBP (CBP) IC50.
T1 construct: Recombinant human CBP bromodomain (CBP-BD (1043-1159)); made in house; host or cells: E. coli BL21-CodonPlus (DE3), modified pET vector
T1 sequence (Q92793 1081-1197): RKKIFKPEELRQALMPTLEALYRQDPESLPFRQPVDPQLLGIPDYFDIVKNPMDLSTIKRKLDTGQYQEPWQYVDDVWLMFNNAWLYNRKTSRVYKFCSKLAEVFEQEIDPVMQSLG
In short: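 Buffer: 50 mM HEPES pH 7.5, 50 mM NaCl, 0.01% BSA, 0.01% Triton X-100, 2 mM DTT. The signal was normalised to plate controls and fitted with a four-parameter curve to give IC50.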
Molecule `CCOc1cc(C(=O)O)nc(OCC)c1-c1cn(C2CCN(C(=O)OC(C)(C)C)CC2)c2ncc(-c3c(C)noc3C)cc12` [P-0433, 5-(1-(1-(tert-butoxycarbonyl)piperidin-4-yl)-5-(3,5-dimethylisoxazol-4-yl)-1H-pyrrolo[2,3-b]pyridin-3-yl)-4,6-diethoxypicolinic acid] has an IC50 of 0.1 to 1000 nM.
Work on `Cc1noc(C)c1-c1cnc2c(c1)c(C1CCC(C(=O)O)CC1)cn2-c1ccc(F)cc1F` (centres unmarked) [P-0434, 4-(1-(2,4-difluorophenyl)-5-(3,5-dimethylisoxazol-4-yl)-1H-pyrrolo[2,3-b]pyridin-3-yl)cyclohexane-1-carboxylic acid] yielded an IC50 of 0.1 to 1000 nM.
`CCOc1cc(C(=O)O)nc(OCC)c1-c1cn(C2CCN(S(C)(=O)=O)CC2)c2ncc(-c3c(C)noc3C)cc12` [P-0435, 5-(5-(3,5-dimethylisoxazol-4-yl)-1-(1-(methylsulfonyl)piperidin-4-yl)-1H-pyrrolo[2,3-b]pyridin-3-yl)-4,6-diethoxypicolinic acid] showed an IC50 of 0.1 to 1000 nM.
Molecule `CCOc1cc(C(=O)O)nc(OCC)c1-c1cn(-c2cccnc2)c2ncc(-c3c(C)noc3C)cc12` [P-0436, 5-(5-(3,5-dimethylisoxazol-4-yl)-1-(pyridin-3-yl)-1H-pyrrolo[2,3-b]pyridin-3-yl)-4,6-diethoxypicolinic acid] has an IC50 of 0.1 to 1000 nM.
In the case of `Cc1noc(C)c1-c1cnc2c(c1)c(-c1ccc(CC(=O)O)cc1F)cn2-c1ccc(F)cc1F` [P-0437], the IC50 is reported as 0.1 to 1000 nM.
In the case of `Cc1noc(C)c1-c1cnc2c(c1)c(-c1ccc(CC(=O)O)cc1)cn2-c1ccc(F)cc1F` [P-0438, 2-(4-(1-(2,4-difluorophenyl)-5-(3,5-dimethylisoxazol-4-yl)-1H-pyrrolo[2,3-b]pyridin-3-yl)phenyl)acetic acid], the IC50 is reported as 0.1 to 1000 nM.
Molecule `Cc1noc(C)c1-c1cnc2c(c1)c(-c1c(Cl)cc(C(=O)O)cc1OC(F)(F)F)cn2-c1cccnn1` [P-0439, 3-chloro-4-(5-(3,5-dimethylisoxazol-4-yl)-1-(pyridazin-3-yl)-1H-pyrrolo[2,3-b]pyridin-3-yl)-5-(trifluoromethoxy)benzoic acid] has an IC50 of 0.1 to 1000 nM.
`COC(=O)c1cc(Cl)c(-c2cn(-c3ccc(C4CC4)nc3)c3ncc(-c4c(C)noc4C)cc23)c(OC(F)(F)F)c1` [P-0440, methyl 3-chloro-4-(1-(6-cyclopropylpyridin-3-yl)-5-(3,5-dimethylisoxazol-4-yl)-1H-pyrrolo[2,3-b]pyridin-3-yl)-5-(trifluoromethoxy)benzoate] was tested, and the IC50 was 1000 to 8000 nM.
`Cc1noc(C)c1-c1cnc2c(c1)c(-c1c(Cl)cc(C(=O)O)cc1OC(F)(F)F)cn2-c1ccc(C2CC2)nc1` [P-0441, 3-chloro-4-(1-(6-cyclopropylpyridin-3-yl)-5-(3,5-dimethylisoxazol-4-yl)-1H-pyrrolo[2,3-b]pyridin-3-yl)-5-(trifluoromethoxy)benzoic acid] was tested, and the IC50 was 0.1 to 1000 nM.
`CCOc1cc(C(=O)O)c(F)cc1-c1cn(C2CCN(C(=O)OC(C)(C)C)CC2)c2ncc(-c3c(C)noc3C)cc12` [P-0442, 4-(1-(1-(tert-butoxycarbonyl)piperidin-4-yl)-5-(3,5-dimethylisoxazol-4-yl)-1H-pyrrolo[2,3-b]pyridin-3-yl)-5-ethoxy-2-fluorobenzoic acid] was tested, and the IC50 was 0.1 to 1000 nM.
In the case of `COc1ccc(CC(=O)O)cc1-c1cn(-c2ccc(F)cc2F)c2ncc(-c3c(C)noc3C)cc12` [P-0443, 2-(3-(1-(2,4-difluorophenyl)-5-(3,5-dimethylisoxazol-4-yl)-1H-pyrrolo[2,3-b]pyridin-3-yl)-4-methoxyphenyl)acetic acid], the IC50 is reported as 0.1 to 1000 nM.
Work on `Cc1noc(C)c1-c1cnc2c(c1)c(-c1cc(F)c(C(=O)O)cc1OC(F)(F)F)cn2-c1ccc(C2CC2)nc1` [P-0444, 4-(1-(6-cyclopropylpyridin-3-yl)-5-(3,5-dimethylisoxazol-4-yl)-1H-pyrrolo[2,3-b]pyridin-3-yl)-2-fluoro-5-(trifluoromethoxy)benzoic acid] yielded an IC50 of 0.1 to 1000 nM.
Molecule `CCOc1cc(C(=O)O)c(F)cc1-c1cn(C2CCN(C(=O)C(C)(C)C)CC2)c2ncc(-c3c(C)noc3C)cc12` [P-0445, 4-(5-(3,5-dimethylisoxazol-4-yl)-1-(1-pivaloylpiperidin-4-yl)-1H-pyrrolo[2,3-b]pyridin-3-yl)-5-ethoxy-2-fluorobenzoic acid] has an IC50 of 0.1 to 1000 nM.
`CCOc1cc(C(=O)O)c(F)cc1-c1cn(C2CCN(CCC#N)CC2)c2ncc(-c3c(C)noc3C)cc12` [P-0446, 4-(1-(1-(2-cyanoethyl)piperidin-4-yl)-5-(3,5-dimethylisoxazol-4-yl)-1H-pyrrolo[2,3-b]pyridin-3-yl)-5-ethoxy-2-fluorobenzoic acid] was tested, and the IC50 was 0.1 to 1000 nM.
With `CCOc1cc(C(=O)O)c(F)cc1-c1cn(C2CCN(C(=O)CO)CC2)c2ncc(-c3c(C)noc3C)cc12` [P-0447, 4-(5-(3,5-dimethylisoxazol-4-yl)-1-(1-(2-hydroxyacetyl)piperidin-4-yl)-1H-pyrrolo[2,3-b]pyridin-3-yl)-5-ethoxy-2-fluorobenzoic acid] the IC50 was 0.1 to 1000 nM.
Work on `CCc1onc(C)c1-c1cnc2c(c1)c(-c1c(Cl)cc(C(=O)O)cc1OC(F)(F)F)cn2-c1ccc(C2CC2)nc1` [P-0448, 3-chloro-4-(1-(6-cyclopropylpyridin-3-yl)-5-(5-ethyl-3-methylisoxazol-4-yl)-1H-pyrrolo[2,3-b]pyridin-3-yl)-5-(trifluoromethoxy)benzoic acid] yielded an IC50 of 0.1 to 1000 nM.
Molecule `Cc1nnn(C)c1-c1cnc2c(c1)c(-c1cccc(C(=O)O)c1)cn2[C@@H](C)c1ccccn1` [P-0449, (S)-3-(5-(1,4-dimethyl-1H-1,2,3-triazol-5-yl)-1-(1-(pyridin-2-yl)ethyl)-1H-pyrrolo[2,3-b]pyridin-3-yl)benzoic acid] has an IC50 of 0.1 to 1000 nM.
